Laboratory results reported in patent publication US12404304B1, “Telomerase reverse transcriptase (TERT) expression enhancing compounds and methods for using the same” (Sierra Sciences, LLC, priority 2007, dated 2025).

Tests used:
[1] = test system: human TERT expression (hTERT mRNA); assay: Quantitative real-time RT-PCR of hTERT mRNA expression (Ct, transcripts) in compound-treated cells; assay type: cell-based
Method in brief: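 Read-out is cycle threshold, the cycle at which probe fluorescence released by Taq 5′-nuclease activity crosses a set level; Ct falls as hTERT mRNA rises. cDNA of treated and untreated cells was compared, with starting transcripts quantified against a known-cDNA standard curve.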

With Fc1cc(Br)cc2c1NC(c1cccnc1)C1CC=CC21 (stereo not drawn) [compound 1457] the “Average Cell Viability after 24 Hours (% DMSO)” value (viable cells in culture) was 57.76 % DMSO and the “Average Number of hTERT Transcripts” value [1] was 12.20.
In the case of Fc1cc(F)c2c(c1)C1C=CCC1C(c1cccnc1)N2 (stereo not drawn) [compound 1463], the “Average Cell Viability after 24 Hours (% DMSO)” value (viable cells in culture) is reported as 62.06 % DMSO and the “Average Number of hTERT Transcripts” value [1] is reported as 174.29.
For O=C(NCCc1c[nH]cn1)c1cc(-c2cccs2)on1 [compound 1523], the “Average Cell Viability after 24 Hours (% DMSO)” value (viable cells in culture) was 87.71 % DMSO and the “Average Number of hTERT Transcripts” value [1] was 513.46.
